Article PMC6072853 (Frontiers in Pharmacology, 2018)

What was measured:
Format in all cases: cell-based, human
A2780 = assay: MTT antiproliferative assay, A2780; conditions: Homo sapiens, 72 h, read-out: Growth inhibition (%) ± SEM; for inhibition at 10 µM: A2780, 10 μM; for inhibition at 30 µM: A2780, 30 μM
Excerpt: (§1) Gynecological cancer cell lines, including ovarian (A2780), cervical (HeLa), and breast cancer cell lines (MCF7, T47D, MDA-MB-231, and MDA-MB-361) were purchased from the European Collection of Authenticated Cell Cultures (ECACC, Salisbury, United Kingdom). Additional cervical cell lines (SiHa and C33A) and a non-cancerous immortalized, mammary gland epithelial cell line (hTERT-HME1) were purchased from LGC Standards GmbH (Wesel, Germany). Non-cancerous fibroblast cells (MRC-5) were also obtained from the ECACC. All cells were cultured in minimal essential medium supplemented with 10% fetal bovine serum, 1% non-essential amino acids, and 1% antibiotic-antimycotic mixture, in humidified air containing 5% CO2 at 37°C. Immortalized hTERT-HME1 cells were maintained in serum-free mammary epithelial cell growth medium (MEGM) supplemented with insulin, human epidermal growth factor (hEGF), hydrocortisone, bovine pituitary extract, and an antibiotic-antimycotic mixture. All the medium and supplements were purchased from Lonza Group Ltd. (Basel, Switzerland).
(§2) The antiproliferative properties of the compounds were assessed by an MTT assay ([Mosmann, 1983]). Cells were seeded onto 96-well microplates at a density of 10,000 cells/well (MDA-MB-361 and C33A) or 5,000 cells/well (all other cell lines). After an overnight incubation, fresh medium containing the test compounds (at a concentration of 10 or 30 μM) was added. After incubation for 72 h at 37°C in humidified air, [3-(4,5-dimethylthiazol-2-yl)-2,5-diphenyltetrazolium bromide] (MTT) solution (5 mg/mL) was added. Purple formazan crystals were formed by the living cells during a 4 h contact period, which were assayed by spectrophotometry after having been dissolved in 100 μL DMSO. Untreated cells served as control, and cisplatin (CIS) (Ebewe Pharma GmbH, Unterach, Austria) was used as a reference compound. […] Two independent measurements were performed with five parallel wells. To present preliminary data concerning tumor selectivity of the potent compounds, the procedure was repeated on MRC-5 fibroblast and hTERT-HME1 immortalized mammary gland epithelial cells under the same experimental conditions.

T47D = assay: MTT antiproliferative assay, T47D; conditions: Homo sapiens, 72 h, read-out: Growth inhibition (%) ± SEM
Excerpt: as §1, §2

MDA-MB-361 = assay: MTT antiproliferative assay, MDA-MB-361; conditions: Homo sapiens, 72 h, read-out: Growth inhibition (%) ± SEM; for inhibition at 10 µM: MDA-MB-361, 10 μM; for inhibition at 30 µM: MDA-MB-361, 30 μM
Excerpt: as §1, §2

HeLa = assay: MTT antiproliferative assay, HeLa; conditions: Homo sapiens, 72 h; for inhibition at 10 µM / inhibition at 30 µM: read-out: Growth inhibition (%) ± SEM
Excerpt: as §1, §2

SiHa = assay: MTT antiproliferative assay, SiHa; conditions: Homo sapiens, 72 h, read-out: Growth inhibition (%) ± SEM
Excerpt: as §1, §2

MCF-7 = assay: MTT antiproliferative assay, MCF-7; conditions: Homo sapiens, MCF7, 72 h, read-out: Growth inhibition (%) ± SEM; for inhibition at 10 µM: MCF-7, 10 μM; for inhibition at 30 µM: MCF-7, 30 μM
Excerpt: as §1, §2

C33A = assay: MTT antiproliferative assay, C33A; conditions: Homo sapiens, C-33-A, 72 h, read-out: Growth inhibition (%) ± SEM
Excerpt: as §1, §2

MRC-5 = assay: MTT assay, non-cancerous fibroblasts MRC-5; conditions: Homo sapiens, MRC5, 72 h, read-out: Growth inhibition (%) ± SEM
Excerpt: as §1, §2

MDA-MB-231 = assay: MTT antiproliferative assay, MDA-MB-231; conditions: Homo sapiens, 72 h, read-out: Growth inhibition (%) ± SEM; for inhibition at 10 µM: MDA-MB-231, 10 μM; for inhibition at 30 µM: MDA-MB-231, 30 μM
Excerpt: as §1, §2

SMILES | inhibition at 10 µM (A2780) [%] | inhibition at 30 µM (A2780) [%] | inhibition at 10 µM (T47D) [%] | inhibition at 30 µM (T47D) [%] | inhibition at 10 µM (MDA-MB-361) [%] | inhibition at 30 µM (MDA-MB-361) [%] | inhibition at 10 µM (HeLa) [%] | inhibition at 30 µM (HeLa) [%] | IC50 (HeLa; read-out: calculated IC50 value) [nM] | inhibition at 10 µM (SiHa) [%] | inhibition at 30 µM (SiHa) [%] | inhibition at 10 µM (MCF-7) [%] | inhibition at 30 µM (MCF-7) [%] | inhibition at 10 µM (C33A) [%] | inhibition at 30 µM (C33A) [%] | inhibition at 10 µM (MRC-5; MRC-5, 10 μM) [%] | inhibition at 30 µM (MRC-5; MRC-5, 30 μM) [%] | inhibition at 10 µM (MDA-MB-231) [%] | inhibition at 30 µM (MDA-MB-231) [%]
C[C@]12CC[C@H]3[C@@H](CCC4=CC(=O)CC[C@@H]43)[C@@H]1CC[C@H]2I [Compound 5] | 27.7 ± 1.3 | 61.6 ± 1.8 | < 20 | < 20 | < 20 | < 20 | 95.2 ± 0.4 | 95.8 ± 0.2 | 1490 | < 20 | < 20 | < 20 | < 20 | < 20 | < 20 | 13.1 ± 1.9 | 13.8 ± 2 | < 20 | < 20
C[C@]12CC[C@H]3[C@@H](CCC4=CC(=O)CC[C@@H]43)[C@@H]1CC[C@H]2OC(=O)c1ccc([N+](=O)[O-])cc1[N+](=O)[O-] [Compound 6, 17α-19-nortestosterone-17-yl 2′,4′-dinitrobenzoate] | < 20 | 31.9 ± 2.6 | < 20 | 47.2 ± 2.6 | < 20 | < 20 | 32 ± 2.9 | 26.5 ± 2.3 | – | < 20 | < 20 | < 20 | 35.9 ± 1.4 | < 20 | < 20 | – | – | < 20 | < 20
C[C@]12CC[C@H]3[C@@H](CCC4=CC(=O)CC[C@@H]43)[C@@H]1CC[C@H]2OC(=O)c1cc([N+](=O)[O-])cc([N+](=O)[O-])c1 [Compound 7, 17α-19-nortestosterone-17-yl 3′,5′-dinitrobenzoate] | 49.2 ± 0.9 | 58.1 ± 2 | < 20 | < 20 | < 20 | 22 ± 1.6 | 26.6 ± 1.8 | 21.5 ± 1.9 | – | < 20 | < 20 | 25.9 ± 3.1 | 37.7 ± 3.4 | < 20 | < 20 | – | – | < 20 | < 20
